Reference: patent publication US20250170112A1, “ADENOSINE LIGANDS FOR THE TREATMENT OF NEUROLOGICAL DISORDERS” (Lucy Therapeutics, Inc., priority 2022, published 2025)

Experiments:
human A2B = molecular target: T1, human A2B (Homo sapiens, UniProt P29275); assay: cAMP HTRF assay for Gs coupled receptor, agonist test; type: cell-based; settings: agonist activity; HEK293 cells expressing recombinant human A2B; read-out: A2BAR EC50
T1 construct: expressed in transfected cells; host or cells: HEK293
T1 sequence (P29275 1-332): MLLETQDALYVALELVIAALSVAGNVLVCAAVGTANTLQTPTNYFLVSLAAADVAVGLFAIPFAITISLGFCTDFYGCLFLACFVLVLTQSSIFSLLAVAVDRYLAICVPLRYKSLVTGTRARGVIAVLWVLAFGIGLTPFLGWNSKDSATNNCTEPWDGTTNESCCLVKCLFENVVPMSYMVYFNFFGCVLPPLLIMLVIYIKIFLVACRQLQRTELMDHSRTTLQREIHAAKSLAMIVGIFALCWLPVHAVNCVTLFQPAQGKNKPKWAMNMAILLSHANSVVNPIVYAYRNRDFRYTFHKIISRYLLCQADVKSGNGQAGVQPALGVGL
Protocol: (§1) SPA ^35S-GTPγS experiments were conducted with Epics Therapeutics membrane preparations. cAMP HTRF assays were conducted with recombinant cell lines.
Dose response curves are performed in parallel with the reference compounds.
For agonist test (96 well): 12 μL of cells are mixed with 12 μL of the test compound at increasing concentrations and then incubated 30 min at room temperature. After addition of the lysis buffer containing cAMP-d2 and anti-cAMP cryptate detection reagents, plates are incubated 1 hour incubation at room temperature, and fluorescence ratios are measured according to the manufacturer specification, with the HTRF kit.

[1] = molecular target: T2, human Adenosine A1 receptor (Homo sapiens, UniProt P30542); assay: GTPγS scintillation proximity assay, agonist testing; type: biochemical; settings: agonist activity; membrane extracts of CHO-K1 cells expressing recombinant human A1; read-out: A1AR EC50
T2 construct: host or cells: CHO-K1
T2 sequence (P30542 1-326): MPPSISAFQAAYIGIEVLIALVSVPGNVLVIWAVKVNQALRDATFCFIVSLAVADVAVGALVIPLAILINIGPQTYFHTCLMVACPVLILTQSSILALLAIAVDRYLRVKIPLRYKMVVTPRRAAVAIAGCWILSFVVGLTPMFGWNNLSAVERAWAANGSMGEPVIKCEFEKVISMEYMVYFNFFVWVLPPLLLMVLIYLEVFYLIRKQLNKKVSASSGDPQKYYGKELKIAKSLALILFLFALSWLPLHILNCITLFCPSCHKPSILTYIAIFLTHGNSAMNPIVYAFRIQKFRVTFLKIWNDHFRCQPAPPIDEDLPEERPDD
Protocol: as §1
• Assay buffer: 20 mM HEPES pH 7.4; 100 mM NaCl, 10 μg/mL saponin, MgCl2 at optimized concentration for the specific receptor. • Membranes: membrane extracts prepared from CHO-K1 cells expressing recombinant human Adenosine A1 receptor, thawed on ice, diluted in assay buffer and kept on ice. • GDP: diluted in assay buffer at the optimized concentration for the specific receptor Beads: PVT-WGA (Perkin Elmer, RPNQ001), diluted in assay buffer at 50 mg/mL (0.5 mg/10 μL) • GTPγ^35S: (Perkin Elmer, NEG030X), diluted in assay buffer for a final 0.1 nM assay concentration
Protocol for agonist testing: membranes are mixed with GDP (volume:volume). In parallel, GTPγ[^35S] is mixed with the beads (volume:volume) just before starting the reaction. The following reagents are successively added in the wells of an Optiplate (Perkin Elmer): 50 μL of test or reference ligand, 25 μL of the membranes:GDP mix, and 25 μL of the GTPγ[^35S]:beads mix. The plates are covered with a top seal, mixed on an orbital shaker for 2 min, and then incubated for 1 hour at room temperature. Then the plates are centrifuged for 10 min at 2000 rpm, incubated at room temperature and counted for 30 sec/well with a PerkinElmer TopCount™ reader. • Conditions for the GTPγS scintillation proximity assay are shown in Table 14.

Compound	EC50 (human A2B) [nM]	EC50 [1] [nM]
N#Cc1cnc(SCC2CCCO2)c(C#N)c1-c1ccc(OCCO)cc1 (stereo not shown) [Compound 1]	5850	> 10000
N#Cc1c(N)nc(SCc2cncc3[nH]ccc23)c(C#N)c1-c1ccc(OCCO)cc1 [Compound 2]	0.28	> 10000
COCCOc1ccc(-c2c(C#N)c(N)nc(SCc3ccnc4[nH]ccc34)c2C#N)cc1 [Compound 4]	2410	> 10000
N#Cc1c(N)nc(SCc2cccc3[nH]cnc23)c(C#N)c1-c1ccc(OCCO)cc1 [Compound 5]	13.4	> 10000
N#Cc1c(SCc2cnccn2)nc(N2CCC2)c(C#N)c1-c1ccc(OCCO)cc1 [Compound 6]	213	586
N#Cc1c(N)nc(SCc2cccc3occc23)c(C#N)c1-c1ccc(OCCO)cc1 [Compound 7]	150	> 10000
N#Cc1c(N)nc(SCc2cccc3[nH]ccc23)c(C#N)c1-c1ccc(OCCO)cc1 [Compound 8]	37.7	37.1
N#Cc1c(N)nc(SCC2CCCOC2)c(C#N)c1-c1ccc(OC2COC2)cc1 (stereo not shown) [Compound 9]	2490	884
N#Cc1c(N)nc(SCCC2CCO2)c(C#N)c1-c1ccc(OCCO)cc1 (stereo not shown) [Compound 10]	3760	> 10000
COCCOc1ccc(-c2c(C#N)c(SCc3cccnn3)nc(N3CCC3)c2C#N)cc1 [Compound 12]	> 10000	483
N#Cc1c(N)nc(SCC2CCCOC2)c(C#N)c1-c1ccc(OCCO)cc1 (stereo not shown) [Compound 13]	272	> 10000
N#Cc1c(N)nc(SCc2ccnc3[nH]ccc23)c(C#N)c1-c1ccc(OCCO)cc1 [Compound 14]	81.7	29.2
N#Cc1c(N)nc(SCc2cccc3[nH]ncc23)c(C#N)c1-c1ccc(OCCO)cc1 [Compound 15]	142	1050
COCCOc1ccc(-c2c(C#N)c(N)nc(SCc3ccc4c(c3)OCC4)c2C#N)cc1 [Compound 16]	> 10000	7600
CCOCCSc1nc(N)c(C#N)c(-c2ccc(OC3COC3)cc2)c1C#N [Compound 17]	5950	99.1
N#Cc1cnc(SCc2cccnc2)c(C#N)c1-c1ccc(OC2COC2)cc1 [Compound 18]	299	69.5
N#Cc1c(SCc2cccnn2)nc(N2CCC2)c(C#N)c1-c1ccc(OCCO)cc1 [Compound 20]	3	14.1
COCCOc1ccc(-c2c(C#N)c(SCc3cnccn3)nc(N3CCC3)c2C#N)cc1 [Compound 21]	> 10000	3520
N#Cc1c(N)nc(SCc2cccc3[nH]ccc23)c(C#N)c1-c1ccc(OC2COC2)cc1 [Compound 22, 2-Amino-6-(1H-indol-4-ylmethylsulfanyl)-4-[4-(oxetan-3-yloxy)phenyl]pyridine-3,5-dicarbonitrile]	> 10000	3.5
N#Cc1c(SCc2cncnc2)nc(N2CCC2)c(C#N)c1-c1ccc(OCCO)cc1 [Compound 23]	420	100
N#Cc1c(N)nc(SCC2CCOC2)c(C#N)c1-c1ccc(OC2COC2)cc1 (stereo not shown) [Compound 24]	> 10000	9.8
N#Cc1c(N)nc(SCC2COC2)c(C#N)c1-c1ccc(OC2COC2)cc1 [Compound 25]	> 10000	1.1
CCOCCSc1nc(N)c(C#N)c(-c2ccc(OCCO)cc2)c1C#N [Compound 27]	65.9	31.4
N#Cc1c(N)nc(SCC2CCOC2)c(C#N)c1-c1ccc(OCCO)cc1 (stereo not shown) [Compound 28]	> 10000	52.4

Compound	EC50 (human A2B) [nM]	EC50 [1] [nM]
N#Cc1c(N)nc(SCc2cccc(OC(F)(F)F)c2)c(C#N)c1-c1ccc(OC2COC2)cc1 [Compound 29]	6120	79
COCCOc1ccc(-c2c(C#N)c(SCc3cncnc3)nc(N3CCC3)c2C#N)cc1 [Compound 30]	> 10000	3090
N#Cc1c(N)nc(SC2CCOCC2)c(C#N)c1-c1ccc(OC2COC2)cc1 [Compound 31]	> 10000	596
N#Cc1c(N)nc(SC2CCOCC2)c(C#N)c1-c1ccc(OCCO)cc1 [Compound 32]	> 10000	890
COc1cccc(CSc2nc(N)c(C#N)c(-c3ccc(OC4COC4)cc3)c2C#N)c1 [Compound 33]	563	7.9
CCOCCSc1nc(N)c(C#N)c(-c2ccc(OCCOC)cc2)c1C#N [Compound 34]	> 10000	245
COCCOc1ccc(-c2c(C#N)c(N)nc(SCc3cccc(OC(F)(F)F)c3)c2C#N)cc1 [Compound 35]	> 10000	238
COCCOc1ccc(-c2c(C#N)c(N)nc(SCC3CCOC3)c2C#N)cc1 (stereo not shown) [Compound 36]	> 10000	124
COCCOc1ccc(-c2c(C#N)c(N)nc(SCc3cccc(OC)c3)c2C#N)cc1 [Compound 37]	> 10000	139
COCCOc1ccc(-c2c(C#N)c(C)nc(N)c2C#N)cc1 [Compound 39, 2-Amino-4-[4-(2-methoxyethoxy)phenyl]-6-methyl-pyridine-3,5-dicarbonitrile]	> 10000	862
N#Cc1c(N)nc(SCc2cccnc2)c(C#N)c1-c1ccc(OCCOC(F)F)cc1 [Compound 40]	> 10000	21.6
COCCOc1ccc(-c2c(C#N)c(N)nc(SCc3ccc4cc[nH]c4c3)c2C#N)cc1 [Compound 44]	> 10000	34.3
N#Cc1c(SCc2cccnc2)nc(C2CC2)c(C#N)c1-c1ccc(OCCO)cc1 [Compound 45, 2-Cyclopropyl-4-[4-(2-hydroxyethoxy)phenyl]-6-(3-pyridylmethylsulfanyl)-pyridine-3,5-dicarbonitrile]	8.2	34.3
COCCOc1ccc(-c2c(C#N)c(SCc3cccnc3)nc(C3CC3)c2C#N)cc1 [Compound 46]	> 10000	110
COCCOc1ccc(-c2c(C#N)c(C)nc(SCCC(F)(F)F)c2C#N)cc1 [Compound 47]	36.1	> 10000
Cc1nc(SCCC(F)(F)F)c(C#N)c(-c2ccc(OCCO)cc2)c1C#N [Compound 48]	42.6	> 10000
CC(C)(O)COc1ccc(-c2c(C#N)c(SCc3cccnc3)nc(N3CCC3)c2C#N)cc1 [Compound 49]	65	311
CC(C)(O)COc1ccc(-c2c(C#N)c(SCc3cccnc3)nc(N3CCCC3)c2C#N)cc1 [Compound 50]	94.2	294
CC(C)(O)COc1ccc(-c2c(C#N)c(N)nc(SCc3cccnc3)c2C#N)cc1 [Compound 51]	5.1	38
CC(O)COc1ccc(-c2c(C#N)c(SCc3cccnc3)nc(N3CCCC3)c2C#N)cc1 (stereo not shown) [Compound 52]	5.3	94.2
CC(O)COc1ccc(-c2c(C#N)c(SCc3cccnc3)nc(N3CCC3)c2C#N)cc1 (stereo not shown) [Compound 53, 2-(azetidin-1-yl)-4-[4-(2-hydroxypropoxy)phenyl]-6-(3-pyridylmethylsulfanyl)-pyridine-3,5-dicarbonitrile]	0.7	7.2
CC(O)COc1ccc(-c2c(C#N)c(N)nc(SCc3cccnc3)c2C#N)cc1 (stereo not shown) [Compound 56, 2-Amino-4-[4-(2-hydroxy-propoxy)phenyl]-6-(3-pyridylmethylsulfanyl)pyridine-3,5-dicarbonitrile]	0.08	8.6
N#Cc1cnc(SCC2COC2)c(C#N)c1-c1ccc(OCCO)cc1 [Compound 61, 4-[4-(2-hydroxyethoxy)phenyl]-2-(oxetan-3-ylmethythio)pyridine-3,5-dicarbonitrile]	> 10000	620
